In one data set the test system is NF-κB. The data set is described as follows: NF-κB transcriptional activity in TNFα-induced HeLa cells. In kind it is cell-based. The following applies: Homo sapiens, 1 h pre-treatment, then 4 h of 20 ng/mL TNFα, average of three experiments, read-out: IC50, inhibition of NF-κB transcriptional activity. Here is the method:
The compounds were tested on HeLa (adenocarcinoma) cells to quantify their ability to inhibit NF-κB transcriptional activity. NF-κB activity was induced in HeLa cells by TNFα, and then the compounds were added to inhibit the induced NF-κB activity. Half maximal inhibitory concentrations (IC50) of several compounds, namely Compound 1, Compound 2 and Compound 12, were determined by dose response studies.
HeLa cells were plated in a 12-well plate (200,000 cells/well) and cultured in Eagle's Minimal Essential medium (EMEM) from Lonza supplemented with 10% heat-inactivated fetal bovine serum (Invitrogen) and 50 μg/mL penicillin/streptomycin (Invitrogen), and were left overnight to attach. Cells were pre-treated with serial diluted (started at 30 µM; 1:3 dilution) compounds for 1 h and then exposed to 20 ng/mL TNFα (Peprotech) for 4 h in serum free media. After the treatment, the cells were washed with PBS (Invitrogen), and lysed with RIPA buffer (Themo Scientific). The transcription activity of NF-κB in the cells was measured by Chemiluminescent Transcription Factor Assay kit (Thermo Scientific Catalog #89859), according to the manufacturer's instruction. Briefly, 1.5 mg/mL of RIPA lysed whole cell extract from each treatment were incubated in a 96-well plate bound with NF-κB biotinylated-consensus sequence. The active NF-κB transcription factor bound to the consensus sequence was incubated with NF-κB p65 primary antibody and then with a secondary HRP-conjugated antibody. A chemiluminescent substrate was added to the wells and the resulting signal was detected using a luminometer. Three separate experiments were analyzed for each concentration of the IC50 curves. XLFit model 205 was used to calculate IC50 curves.
Inhibition of NF-κB transcriptional activity was measured by serial dilutions of Compound 1, Compound 2 and Compound 12 after 1 h of compound pre-treatment followed by 4 h of 20 ng/mL TNFα exposure. Three independent experiments were scored for each concentration, with the average being presented here.

The nature of data set [1]: Brain to plasma ratio (B:P) in mice. In kind it is in vivo. Here is the method:
Brain tissue following collection was rinsed with cold saline, dried on filter paper, weighed and snap-frozen by placing on dry ice. All samples were stored frozen at approximately −80° C. until analysis. […] Plasma samples were treated with the identical method (except homogenization step) and concentration of compound in either matrix was calculated based on the generated standard curves.

Data set [2] in a line: Pharmacokinetics (plasma AUCInf) in mice. In kind it is in vivo. The following applies: 10 mg/kg po. On the procedure: Blood was collected from mice (N=3) to contribute to the total of 10 time points (pre-dose, 5 min, 15 min, 30 min, 1 hour, 2 hours, 4 hours, 8 hours, 12 hours and 24 hours post dose). Mice were bled on a rotating basis, each mouse contributing 3 time points to the blood collection. At the designated time points, animals were anaesthetized under isoflurane, and approximately 110 μL of blood per time point was collected via retro-orbital puncture into pre-cooled K2EDTA (anti-coagulant) tubes. Blood samples were put on wet ice and centrifuged (2000 g, 5 min at 4° C.) to obtain plasma within 30 minutes of sample collection. All samples were stored frozen at approximately −80° C. until analysis. Prior to analysis, samples were mixed with internal standard (dexamethasone) in acetonitrile, vortexed, centrifuged, and supernatant was injected for analysis. Concentration of compounds in plasma was determined using LC-MS-MS instrumentation (API 4000, Triple Quadruple with electrospray ionization; Acuity Ultra Performance Liquid Chromatography column C18, with MeOH and formic acid as organic solvents). PK parameters including but not limited to Tmax, Cmax, t1/2, AUClast, AUCInf were calculated using WinNonlin Professional 6.2 software package, non-compartmental pharmacokinetic model NCA200.

The subject of the next data set is A549 xenograft tumors. In words: A549 lung carcinoma xenograft in SCID mice. In kind it is in vivo. The following applies: for mean tumor volume: 5 mg/kg IP Days 1, 15. On the procedure:
The A549 cell line was derived from explant culture of alveolar carcinoma tissue from a person. The cells were grown in Ham's F12-K tissue culture media with 10% fetal calf serum and 1% penicillin/streptomycin. Cells were routinely trypsinized and passaged 1:10. Thirty-two (32) female CB-17 SCID mice (Charles River Labs strain code 236), aged 5 to 6 weeks were used with a mean pre-treatment body weight of 16.3 grams. Mice were divided into four (4) groups of eight (8) prior to the initiation of treatment based on tumor volume. On the day of implantation, cells were washed in PBS, trypsinized and resuspended in complete media to a density of 2×10^7 cells/mL prior to being mixed with an equal volume of Matrigel. This mixture was then inoculated subcutaneously into mice in a volume of 0.1 mL using a 23G needle.
Animal weights and condition were recorded daily, and tumors were measured on Mondays, Wednesdays and Fridays with micro-calipers, and tumor volume was calculated as (length×width×width)/2.
Animals with weight loss of more than 20% of their starting weight were euthanized. Mice with weight loss of more than 15% of their starting weight were not treated again until weight loss recovered to less than 5% of their starting weight. Any animals with a tumor volume of more than 1500 mm^3 were euthanized.
Dosing solutions were prepared fresh on each day of dosing. Compound 2 was supplied as a lyophilized powder containing 69.61% Compound 2 with the balance made up of Pluronic F-68 and PVP K29/32. This was prepared by dissolving the lyophilized powder in sterile water. Cisplatin was dissolved at 5 mg/mL in DMSO and diluted 1:10 in sterile water for injection. All test articles were administered in a volume of 0.1 mL/10 g body weight.
Statistical differences between treatment groups were determined using Mann-Whitney Rank Sum or ANOVA tests with a critical value of 0.05.

Another data set deals with IMQ-induced psoriasis. The data set is described as follows: Imiquimod (IMQ)-induced dermal inflammation/psoriasis model, Study 2. In kind it is in vivo, mice. The following applies: Compound 2 2.5 mg/kg, cyclophosphamide 10 mg/kg. Here is the method:
Forty (40) male BALB/c mice (Biological E Limited, Hyderabad (CPCSEA registration number: 36/99/CPCSEA)) were divided into four (4) groups consisting of ten (10) mice each. Animals were randomized based on their body weight. The groups were designated as Group-I (Naïve), Group-II (IMQ; vehicle (PEG 400 and HPBCD)), Group-III (IMQ; Compound 2 (2.5 mg/kg)) and […] (IMQ; cyclophosphamide (10 mg/kg)).
A small area on the dorsum of each mouse was shaved, ensuring that these areas were of equal size/area. Psoriasis was induced in Groups II to IV by topical application of 50 mg of IMQ cream daily from Day 1 to Day 6 on the dorsum of the animals. On Day 1 and Day 2 of the study, four hours after topical application of IMQ, Compound 2 or positive control (cyclophosphamide) or vehicle were administered to animals in pertinent groups. Of note, animals in Group II and Group III were subjected to subcutaneous injections, whereas animals in Group IV received oral administration. The Compound 2, vehicle and cyclophosphamide treatment was terminated on Day 2. These groups of animals were maintained on daily IMQ treatments until Day 6. On Day 7, the psoriasis-induced animals were re-randomized into 3 groups consisting of 10 animals each based on Cumulative Disease Activity Index (CDAI). From Day 7 to Day 9, animals received vehicle or positive control or Compound 2. Of note, on these days animals were not treated with IMQ. From Day 10 to Day 14, the animals were treated alternatively with IMQ (Days 10, 12 and 14), or vehicle, positive control or Compound 2 (Days 11, 13).
All animals were observed daily for a period of 16 days for gross observations, body weight and feed and water intake. On Days 1 and 2, scorings of erythema, scaling, folding and thickening of skin were recorded 2 hours after administration of vehicle/positive control/test compounds, and on Days 3 to 14 scorings were recorded 4 hours after IMQ application, or administration of positive control, vehicle or Compound 2.
Vehicle was prepared by dissolving 40 mg of HPBCD in 70.0 mL of distilled water. Compound 2 was prepared by dissolving 3.59 mg in 0.5% PVP and 0.5% Pluronic. Cyclophosphamide was prepared by dissolving 500 mg of CMC in 100 mL distilled water.
The experimental results shown in Table 10 are expressed as mean±SEM. Data was assessed using one-way ANOVA, and post hoc analysis was performed using Dunnett's test.

Molecules are shown by their SMILES.

As usually defined, the IC50 is the concentration needed to halve the response being measured.

Consider `O=C(/C=C\n1cnc(-c2cc(C(F)(F)F)cc(C(F)(F)F)c2)n1)NNC(=O)C(=O)N1CCOCC1` [Compound 12, (Z)-3-(3-(3,5-bis(trifluoromethyl)phenyl)-1H-1,2,4-triazol-1-yl)-N′-(2-morpholino-2-oxoacetyl)acrylohydrazide], for which, in the data set on NF-κB, the IC50 stood at 1.46 µM.

`COc1cc(-c2ncn(/C=C\C(=O)OC(C)C)n2)cc(C(F)(F)F)c1` [Compound X-1]: the “levels in the brain” value in data set [1] (dosed po) is on record as “below the quantitation limit”. Moreover, the AUCInf result in data set [2] is “below the limit of detection”.

Turning to `O=C(/C=C\n1cnc(-c2cc(C(F)(F)F)cc(C(F)(F)F)c2)n1)N1CC(F)(F)C1` [Compound X-3], the “B:P” value in data set [1] (mice, 10 mg/kg po, 2 hours post-dose) is 5.0.

`N.N.[Cl][Pt][Cl]` [cisplatin, reference compound]: the “tumor growth versus vehicle control group (mean AUC of tumor volume, one-way ANOVA)” value in the data set on A549 xenograft tumors (Compound 2 5 or 10 mg/kg PO, cisplatin 5 mg/kg IP) is on record as “no statistically significant reduction in tumor growth”. For the same molecule, the mean tumor volume in the data set on A549 xenograft tumors (Day 1) worked out at 104 mm^3; in the data set on A549 xenograft tumors (Day 29), 1136 mm^3.

As for `O=P1(N(CCCl)CCCl)NCCCO1` (stereo not drawn) [cyclophosphamide, reference compound], the “Rate of reduction of DAI, % change from 1st dose administration” value (shortened to “Rate of reduction of DAI, % change”) is on record as 23.3% in the data set with IMQ-induced psoriasis (Day 7, 4 hr. post-IMQ/drug administration readings); 0.0% in the data set on IMQ-induced psoriasis (Day 7, pre-IMQ/drug administration readings); 20.9% in the data set with IMQ-induced psoriasis (Day 8, 4 hr. post-IMQ/drug administration readings); 16.3% in the data set on IMQ-induced psoriasis (Day 8, pre-IMQ/drug administration readings); −41.9% with IMQ-induced psoriasis (Day 9, 4 hr. post-IMQ/drug administration readings); −39.5% in the data set with IMQ-induced psoriasis (Day 9, pre-IMQ/drug administration readings). Besides, the “Rate of reduction of DAI, % change” value with IMQ-induced psoriasis (Day 10, 4 hr. post-IMQ/drug administration readings) is −86.0%; in the data set with IMQ-induced psoriasis (Day 10, pre-IMQ/drug administration readings), −79.1%; with IMQ-induced psoriasis (Day 11, 4 hr. post-IMQ/drug administration readings) it was −25.6%; in the data set on IMQ-induced psoriasis (Day 11, pre-IMQ/drug administration readings), −25.6%; in the data set with IMQ-induced psoriasis (Day 12, 4 hr. post-IMQ/drug administration readings) it was −34.9%; in the data set with IMQ-induced psoriasis (Day 12, pre-IMQ/drug administration readings), −39.5%. In addition, the “Rate of reduction of DAI, % change” value in the data set with IMQ-induced psoriasis (Day 13, 4 hr. post-IMQ/drug administration readings) is on record as −32.6%; in the data set on IMQ-induced psoriasis (Day 13, pre-IMQ/drug administration readings) it was −25.6%; in the data set with IMQ-induced psoriasis (Day 14, 4 hr. post-IMQ/drug administration readings), −32.6%; with IMQ-induced psoriasis (Day 14, pre-IMQ/drug administration readings) it was −34.9%; in the data set on IMQ-induced psoriasis (Day 15, pre-IMQ/drug administration readings), −41.9%.

Values taken from patent publication US10617677B2, “Nuclear transport modulators and uses thereof” (Biogen MA Inc., priority 2012, dated 2020).
